The first assay concerns the target T1, human CB2R (Homo sapiens, UniProt P34972).
T1 construct: host or cells: CHO cells
The assay is described as follows: CB2R mediated modulation of cAMP synthesis. The format is cell-based. The settings on record: CB2 EC50 (nM), CHO cells expressing human CB2R; inhibition of forskolin-stimulated cAMP synthesis; agonist. The protocol: B. CB2R Mediated Modulation of cAMP Synthesis:
Compounds of the invention were evaluated for their CB2 agonist or inverse agonistic activity in accordance with the following experimental method.
CHO cells expressing human CB2R (Euroscreen) were plated at a density of 5000 cells per well in 384 well plates and incubated overnight at 37° C. After removing the media, the cells were treated with test compounds diluted in stimulation buffer containing 1 mM IBMX, 0.25% BSA and 10 uM Forskolin. The assay was incubated for 30 minutes at 37° C. Cells were lysed and the cAMP concentration was measured using DiscoverX-XS cAMP kit, following the manufacturer's protocol. In this setting, agonists will decrease forskolin induced production of cAMP while inverse agonists will further increase forskolin induced production of cAMP. EC50 of agonists were calculated as follows. The maximal amount of cAMP produced by forskolin compared to the level of cAMP inhibited by 1 uM CP55940 is defined as 100%. The EC50 value of each test compound was determined as the concentration at which 50% of the forskolin-stimulated cAMP synthesis was inhibited. Data was analyzed using a four-parameter logistic model. (Model 205 of XLfit 4.0).
T1 sequence (P34972 whole entry): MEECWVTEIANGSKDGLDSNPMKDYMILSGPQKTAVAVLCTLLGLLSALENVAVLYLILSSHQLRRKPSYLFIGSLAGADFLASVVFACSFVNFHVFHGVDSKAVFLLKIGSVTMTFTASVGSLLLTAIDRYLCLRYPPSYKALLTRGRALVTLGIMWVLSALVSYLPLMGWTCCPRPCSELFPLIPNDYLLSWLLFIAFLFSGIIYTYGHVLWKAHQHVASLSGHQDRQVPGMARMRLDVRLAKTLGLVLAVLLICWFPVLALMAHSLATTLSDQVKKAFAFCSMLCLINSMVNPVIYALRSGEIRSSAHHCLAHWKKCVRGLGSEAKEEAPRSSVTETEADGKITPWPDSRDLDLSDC
For `CCc1sc(NC(=O)[C@@H]2CCN2C2CCOCC2)nc1-c1ccccc1`, the EC50 was 116 nM.

`CC(C)(C)c1cc(NC(=O)[C@@H]2CCN2S(=O)(=O)c2ccc(S(C)(=O)=O)cc2)on1` had a concentration for a half-maximal effect (EC50) of 357 nM.

Compound `CC(C)(C)c1cc(NC(=O)[C@@H]2CCN2c2ncc(C(F)(F)F)cc2Cl)no1` [drawing 125] showed a half-maximal effective concentration (EC50) of 0.02 nM.

`CC(C)(C)c1cc(NC(=O)[C@@H]2CCN2c2ccc(Cl)cc2)on1` showed a 50% effective concentration (EC50) of 0.75 nM.

On to `CC(C)N1CC[C@H]1C(=O)Nc1cc(C(C)(C)C)no1`, for which the EC50 was found to be 26 nM.

For the compound `CC(C)(C)c1cc(NC(=O)[C@@H]2CC(=O)N2c2ccc(Cl)cc2)no1`, the EC50 came to 50 nM.

With `CCc1sc(NC(=O)[C@@H]2CCN2c2ncc(C(F)(F)F)cc2Cl)nc1-c1ccccc1`, the response was half-maximal at 2.7 nM (EC50).

Compound `CC(C)(C)c1cc(NC(=O)[C@@H]2CC(=O)N2c2ccc(Cl)cc2)on1` gave an EC50 of 17 nM.

For the compound `CC(C)(CO)c1cc(NC(=O)[C@@H]2CCN2c2ccc(F)cc2)on1`, the midpoint of the response, the EC50, lay at 22 nM.

As for `CC(C)(C)c1cc(NC(=O)[C@@H]2CCN2c2ccc(Cl)cc2)no1`, the concentration giving a half-maximal response (EC50) worked out at 1.7 nM.

On to `CC(C)(C)c1cc(NC(=O)[C@@H]2CCN2C2CCCC2)on1`, for which the 50% effective concentration (EC50) was 6.6 nM.

The compound `CC(C)(C)c1cc(NC(=O)[C@@H]2CCN2C2CCOCC2)no1` [drawing 128] yielded an EC50 of 8.8 nM.

As for `CCc1sc(NC(=O)[C@@H]2CCN2CC2CCOCC2)nc1-c1ccccc1`, the EC50 worked out at 4.1 nM.

`CCCS(=O)(=O)N1CC[C@H]1C(=O)Nc1cc(C(C)(C)C)on1` returned an EC50 of 157 nM.

Compound `CC(C)(C)c1cc(NC(=O)[C@@H]2CCN2S(=O)(=O)c2ccc(S(C)(=O)=O)cc2)no1` showed a concentration for a half-maximal effect (EC50) of 197 nM.

With `COCC(C)(C)c1cc(NC(=O)[C@@H]2CCN2c2ccc(Cl)cc2)no1`, the EC50 was found to be 12 nM.

Compound `CC(C)(C)c1nsc(NC(=O)[C@@H]2CCN2C2CCOCC2)n1` gave an EC50 of 471 nM.

As to `O=C(Nc1cc(C(F)(F)F)no1)[C@@H]1CCN1c1ccc(Cl)cc1`, the EC50 came to 43 nM.

`CC(C)(CO)c1cc(NC(=O)[C@@H]2CCN2c2ccc(Cl)cc2)on1` returned a concentration giving a half-maximal response (EC50) of 18 nM.

The compound `O=C(Nc1nc(-c2ccc(F)c(F)c2)cs1)[C@@H]1CCN1C1CCOCC1` registered an EC50 of 203 nM.

Regarding `CC(C)(CO)c1cc(NC(=O)[C@@H]2CCN2c2ncc(C(F)(F)F)cc2Cl)on1`, the EC50 amounted to 0.12 nM.

`O=C(Nc1nc2cc(Cl)ccc2s1)[C@@H]1CCN1C1CCOCC1` displayed a concentration giving a half-maximal response (EC50) of 86 nM.

With `CC(C)(C)c1cc(NC(=O)[C@@H]2CCN2C2CCOCC2)no1` [drawing 132], the EC50 came out at 18 nM.

`CCc1sc(NC(=O)[C@@H]2CCN2c2ccc(C(F)(F)F)cn2)nc1-c1ccccc1` gave an EC50 of 128 nM.

For `CC(C)(C)c1coc(NC(=O)[C@@H]2CCN2C2CCOCC2)n1`, the EC50 was determined as 206 nM.

Compound `COCC(C)(C)c1cc(NC(=O)[C@@H]2CCN2c2ccc(F)cc2)no1` came in with an EC50 of 7.7 nM.

`O=C(Nc1nc(C2CCCCC2)cs1)[C@@H]1CCN1C1CCOCC1` displayed a concentration for a half-maximal effect (EC50) of 56 nM.

Take `CC(C)(C)c1cc(NC(=O)[C@@H]2CCN2c2ccc(C(F)(F)F)cn2)on1`: the half-maximal effective concentration (EC50) worked out at 0.67 nM.

The compound `CC(C)(C)c1cc(NC(=O)[C@@H]2CCN2C2CCOCC2)sn1` registered an EC50 of 313 nM.

As for `CC(C)(C)c1cc(NC(=O)[C@@H]2CCN2C2CCCCC2)on1`, the EC50 was 0.08 nM.

`CC(C)(C)c1cc(NC(=O)[C@@H]2CCN2Cc2ccc(F)c(F)c2)on1` had a half-maximal effective concentration (EC50) of 14 nM.

`CC(C)(C)c1cc(NC(=O)[C@@H]2CCN2c2ncc(C(F)(F)F)cc2Cl)no1` [drawing 126] gave a half-maximal effective concentration (EC50) of 0.05 nM.

Turning to `CC(C)(CO)c1cc(NC(=O)[C@@H]2CCN2c2ccc(C(F)(F)F)cn2)on1`, a half-maximal response (EC50) required 18 nM.

On to `COCC(C)(C)c1cc(NC(=O)[C@@H]2CCN2C2CCOCC2)on1`, for which the EC50 turned out to be 75 nM.

In the case of `COCC(C)(C)c1cc(NC(=O)[C@@H]2CCN2c2ccc(F)cc2)on1`, the midpoint of the response, the EC50, lay at 5.6 nM.

Compound `O=C(Nc1nc2c(F)cccc2s1)[C@@H]1CCN1C1CCOCC1` showed an EC50 of 153 nM.

`CC(C)(C)Cc1cc(NC(=O)[C@@H]2CCN2C2CCOCC2)on1` registered an EC50 of 243 nM.

The assay is the same for the next values; noted with them: CHO cells expressing human CB2R; inhibition of forskolin-stimulated cAMP synthesis; agonist; read-out: CB2 EC50.
Regarding `CC(C)(C)c1cc(NC(=O)[C@@H]2CCN2C(=O)C2CCC(F)(F)CC2)no1`, the half-maximal effective concentration (EC50) came out at 127 nM.

In the case of `O=C(Nc1nc(-c2ccccc2)cs1)[C@@H]1CCN1C1CCOCC1`, the concentration for a half-maximal effect (EC50) came out at 465 nM.

On to `O=C(Nc1ccc(C(F)(F)F)c(F)c1)[C@@H]1CCN1C1CCOCC1`, for which the EC50 was found to be 371 nM.

As usually defined, the EC50 is the concentration giving half of the maximal effect.
